{"source": "the supplement of paper PMC10307832", "experiment_in_all_cases": "relative viability (nuclei count vs DMSO), 5 days (fraction); higher = more cells survive", "key": {"[1]": {"tested_on": "ChaGo-K-1", "outline": "(§1)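 Lung cancer cell lines, seeded in 1536-well plates, were treated the following day by pin tool with a single drug or with five library-drug doses (not always all listed) in √10 steps on top of a fixed anchor-drug dose. Cells were fixed and nuclei stained in one step after 5 days, and nuclei were counted. Relative viability is the nuclei count for treated wells divided by that for vehicle wells, reported as medians of duplicate plates.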"}, "[2]": {"tested_on": "HCC-827", "outline": "as §1"}, "[3]": {"tested_on": "HCC-78", "outline": "as §1"}, "[4]": {"tested_on": "NCI-H2023", "outline": "as §1"}, "[5]": {"tested_on": "NCI-H1792", "outline": "as §1"}, "[6]": {"tested_on": "NCI-H727", "outline": "as §1"}, "[7]": {"tested_on": "NCI-H2342", "outline": "as §1"}, "[8]": {"tested_on": "NCI-H2170", "outline": "as §1"}, "[9]": {"tested_on": "NCI-H1437", "outline": "as §1"}, "[10]": {"tested_on": "NCI-H2126", "outline": "as §1"}, "[11]": {"tested_on": "NCI-H596", "outline": "as §1"}, "[12]": {"tested_on": "LCLC-97TM1", "outline": "as §1"}, "[13]": {"tested_on": "NCI-H2405", "outline": "as §1"}, "[14]": {"tested_on": "NCI-H1755", "outline": "as §1"}, "[15]": {"tested_on": "NCI-H2085", "outline": "as §1"}, "[16]": {"tested_on": "NCI-H441", "outline": "as §1"}, "[17]": {"tested_on": "SK-MES-1", "outline": "as §1"}, "[18]": {"tested_on": "201T", "outline": "as §1"}, "[19]": {"tested_on": "NCI-H650", "outline": "as §1"}, "[20]": {"tested_on": "RERF-LC-KJ", "outline": "as §1"}, "[21]": {"tested_on": "LCLC-103H", "outline": "as §1"}, "[22]": {"tested_on": "LOU-NH91", "outline": "as §1"}}, "data": [{"smiles": "COCC1(CO)C(=O)C2CCN1CC2", "note": "(configuration not stated) [PRIMA-1MET] + Cc1nc(Nc2ncc(C(=O)Nc3c(C)cccc3Cl)s2)cc(N2CCN(CCO)CC2)n1 [Dasatinib] (partner 0.075 µM)", "values": [{"measurement": "relative viability", "setting": "[1]; first compound 0.2 µM", "result": 0.626}, {"measurement": "relative viability", "setting": "[1]; first compound 0.6325 µM", "result": 0.567}, {"measurement": "relative viability", "setting": "[1]; first compound 2 µM", "result": 0.687}, {"measurement": "relative viability", "setting": "[1]; first compound 6.325 µM", "result": 0.54}, {"measurement": "relative viability", "setting": "[1]; first compound 20 µM", "result": 0.363}, {"measurement": "relative viability", "setting": "[2]; first compound 0.2 µM", "result": 0.417}, {"measurement": "relative viability", "setting": "[2]; first compound 0.6325 µM", "result": 0.337}, {"measurement": "relative viability", "setting": "[2]; first compound 2 µM", "result": 0.427}, {"measurement": "relative viability", "setting": "[2]; first compound 6.325 µM", "result": 0.332}, {"measurement": "relative viability", "setting": "[2]; first compound 20 µM", "result": 0.315}, {"measurement": "relative viability", "setting": "[3]; first compound 0.2 µM", "result": 0.427}, {"measurement": "relative viability", "setting": "[3]; first compound 0.6325 µM", "result": 0.331}, {"measurement": "relative viability", "setting": "[3]; first compound 6.325 µM", "result": 0.442}, {"measurement": "relative viability", "setting": "[3]; first compound 20 µM", "result": 0.335}, {"measurement": "relative viability", "setting": "[4]; first compound 0.2 µM", "result": 0.601}, {"measurement": "relative viability", "setting": "[4]; first compound 0.6325 µM", "result": 0.586}, {"measurement": "relative viability", "setting": "[4]; first compound 2 µM", "result": 0.567}, {"measurement": "relative viability", "setting": "[4]; first compound 6.325 µM", "result": 0.57}, {"measurement": "relative viability", "setting": "[4]; first compound 20 µM", "result": 0.229}, {"measurement": "relative viability", "setting": "[5]; first compound 0.2 µM", "result": 0.816}, {"measurement": "relative viability", "setting": "[5]; first compound 0.6325 µM", "result": 0.717}, {"measurement": "relative viability", "setting": "[5]; first compound 2 µM", "result": 0.811}, {"measurement": "relative viability", "setting": "[5]; first compound 6.325 µM", "result": 0.883}, {"measurement": "relative viability", "setting": "[5]; first compound 20 µM", "result": 0.754}, {"measurement": "relative viability", "setting": "[6]; first compound 0.2 µM", "result": 0.273}, {"measurement": "relative viability", "setting": "[6]; first compound 0.6325 µM", "result": 0.346}, {"measurement": "relative viability", "setting": "[6]; first compound 2 µM", "result": 0.351}, {"measurement": "relative viability", "setting": "[6]; first compound 6.325 µM", "result": 0.225}, {"measurement": "relative viability", "setting": "[6]; first compound 20 µM", "result": 0.166}, {"measurement": "relative viability", "setting": "[7]; first compound 0.2 µM", "result": 0.327}, {"measurement": "relative viability", "setting": "[7]; first compound 0.6325 µM", "result": 0.305}, {"measurement": "relative viability", "setting": "[7]; first compound 2 µM", "result": 0.347}, {"measurement": "relative viability", "setting": "[7]; first compound 6.325 µM", "result": 0.295}, {"measurement": "relative viability", "setting": "[7]; first compound 20 µM", "result": 0.333}, {"measurement": "relative viability", "setting": "[8]; first compound 0.2 µM", "result": 0.554}, {"measurement": "relative viability", "setting": "[8]; first compound 0.6325 µM", "result": 0.46}, {"measurement": "relative viability", "setting": "[8]; first compound 2 µM", "result": 0.497}, {"measurement": "relative viability", "setting": "[8]; first compound 6.325 µM", "result": 0.604}, {"measurement": "relative viability", "setting": "[8]; first compound 20 µM", "result": 0.586}, {"measurement": "relative viability", "setting": "[9]; first compound 0.2 µM", "result": 0.435}, {"measurement": "relative viability", "setting": "[9]; first compound 0.6325 µM", "result": 0.184}, {"measurement": "relative viability", "setting": "[9]; first compound 2 µM", "result": 0.43}, {"measurement": "relative viability", "setting": "[9]; first compound 6.325 µM", "result": 0.405}, {"measurement": "relative viability", "setting": "[9]; first compound 20 µM", "result": 0.286}, {"measurement": "relative viability", "setting": "[10]; first compound 0.2 µM", "result": 0.722}, {"measurement": "relative viability", "setting": "[10]; first compound 0.6325 µM", "result": 0.58}, {"measurement": "relative viability", "setting": "[10]; first compound 2 µM", "result": 0.643}, {"measurement": "relative viability", "setting": "[10]; first compound 6.325 µM", "result": 0.646}, {"measurement": "relative viability", "setting": "[10]; first compound 20 µM", "result": 0.605}, {"measurement": "relative viability", "setting": "[11]; first compound 0.2 µM", "result": 0.701}, {"measurement": "relative viability", "setting": "[11]; first compound 0.6325 µM", "result": 0.563}, {"measurement": "relative viability", "setting": "[11]; first compound 2 µM", "result": 0.597}, {"measurement": "relative viability", "setting": "[11]; first compound 6.325 µM", "result": 0.79}, {"measurement": "relative viability", "setting": "[11]; first compound 20 µM", "result": 0.147}, {"measurement": "relative viability", "setting": "[12]; first compound 0.2 µM", "result": 0.461}, {"measurement": "relative viability", "setting": "[12]; first compound 0.6325 µM", "result": 1.01}, {"measurement": "relative viability", "setting": "[12]; first compound 2 µM", "result": 0.815}, {"measurement": "relative viability", "setting": "[12]; first compound 6.325 µM", "result": 0.855}, {"measurement": "relative viability", "setting": "[12]; first compound 20 µM", "result": 0.833}, {"measurement": "relative viability", "setting": "[13]; first compound 0.2 µM", "result": 0.197}, {"measurement": "relative viability", "setting": "[13]; first compound 0.6325 µM", "result": 0.199}, {"measurement": "relative viability", "setting": "[13]; first compound 6.325 µM", "result": 0.169}, {"measurement": "relative viability", "setting": "[13]; first compound 20 µM", "result": 0.0902}, {"measurement": "relative viability", "setting": "[14]; first compound 0.2 µM", "result": 0.476}, {"measurement": "relative viability", "setting": "[14]; first compound 0.6325 µM", "result": 0.471}, {"measurement": "relative viability", "setting": "[14]; first compound 2 µM", "result": 0.397}, {"measurement": "relative viability", "setting": "[14]; first compound 6.325 µM", "result": 0.434}, {"measurement": "relative viability", "setting": "[14]; first compound 20 µM", "result": 0.423}, {"measurement": "relative viability", "setting": "[15]; first compound 0.2 µM", "result": 0.248}, {"measurement": "relative viability", "setting": "[15]; first compound 0.6325 µM", "result": 0.23}, {"measurement": "relative viability", "setting": "[15]; first compound 2 µM", "result": 0.249}, {"measurement": "relative viability", "setting": "[15]; first compound 6.325 µM", "result": 0.248}, {"measurement": "relative viability", "setting": "[15]; first compound 20 µM", "result": 0.192}, {"measurement": "relative viability", "setting": "[16]; first compound 0.2 µM", "result": 0.461}, {"measurement": "relative viability", "setting": "[16]; first compound 0.6325 µM", "result": 0.728}, {"measurement": "relative viability", "setting": "[16]; first compound 2 µM", "result": 0.544}, {"measurement": "relative viability", "setting": "[16]; first compound 6.325 µM", "result": 0.571}, {"measurement": "relative viability", "setting": "[16]; first compound 20 µM", "result": 0.134}, {"measurement": "relative viability", "setting": "[17]; first compound 0.2 µM", "result": 0.303}, {"measurement": "relative viability", "setting": "[17]; first compound 0.6325 µM", "result": 0.475}, {"measurement": "relative viability", "setting": "[17]; first compound 2 µM", "result": 0.447}, {"measurement": "relative viability", "setting": "[17]; first compound 6.325 µM", "result": 0.286}, {"measurement": "relative viability", "setting": "[17]; first compound 20 µM", "result": 0.242}, {"measurement": "relative viability", "setting": "[18]; first compound 0.2 µM", "result": 0.635}, {"measurement": "relative viability", "setting": "[18]; first compound 0.6325 µM", "result": 0.369}, {"measurement": "relative viability", "setting": "[18]; first compound 2 µM", "result": 0.59}, {"measurement": "relative viability", "setting": "[18]; first compound 6.325 µM", "result": 0.566}, {"measurement": "relative viability", "setting": "[18]; first compound 20 µM", "result": 0.582}, {"measurement": "relative viability", "setting": "[19]; first compound 0.2 µM", "result": 0.565}, {"measurement": "relative viability", "setting": "[19]; first compound 2 µM", "result": 0.469}, {"measurement": "relative viability", "setting": "[19]; first compound 6.325 µM", "result": 0.472}, {"measurement": "relative viability", "setting": "[19]; first compound 20 µM", "result": 0.454}, {"measurement": "relative viability", "setting": "[20]; first compound 0.2 µM", "result": 0.759}, {"measurement": "relative viability", "setting": "[20]; first compound 0.6325 µM", "result": 0.833}, {"measurement": "relative viability", "setting": "[20]; first compound 2 µM", "result": 0.931}, {"measurement": "relative viability", "setting": "[20]; first compound 6.325 µM", "result": 0.895}, {"measurement": "relative viability", "setting": "[20]; first compound 20 µM", "result": 0.673}, {"measurement": "relative viability", "setting": "[21]; first compound 0.2 µM", "result": 0.566}, {"measurement": "relative viability", "setting": "[21]; first compound 0.6325 µM", "result": 0.422}, {"measurement": "relative viability", "setting": "[21]; first compound 2 µM", "result": 0.431}, {"measurement": "relative viability", "setting": "[21]; first compound 6.325 µM", "result": 0.447}, {"measurement": "relative viability", "setting": "[21]; first compound 20 µM", "result": 0.342}, {"measurement": "relative viability", "setting": "[22]; first compound 0.2 µM", "result": 0.608}, {"measurement": "relative viability", "setting": "[22]; first compound 0.6325 µM", "result": 0.508}, {"measurement": "relative viability", "setting": "[22]; first compound 2 µM", "result": 0.569}, {"measurement": "relative viability", "setting": "[22]; first compound 6.325 µM", "result": 0.578}, {"measurement": "relative viability", "setting": "[22]; first compound 20 µM", "result": 0.483}]}]}
